The values that follow come from patent US9109001B2, “3′,5′-cyclic phosphoramidate prodrugs for HCV infection” (priority 2012, dated 2015).

The test system of one series is HCV genotype 1b replicon. As to the kind of experiment: HCV Replicon Assay. It is filed as cell-based. The following applies: genotype 1b HCV replicon-bearing Huh-7 cells, read-out: EC50. As to the method:
Huh-7-derived cell line (Zluc) that harbors an HCV genotype 1b replicon and a luciferase reporter gene was grown in Dulbecco's Modified Eagle Medium (DMEM) supplemented with 10% fetal bovine serum, 2 mM GlutaMAX, 1% MEM nonessential amino acids, 100 IU/mL penicillin, 100 μg/mL streptomycin, and 0.5 mg/mL Geneticin® (G418). For dose response testing the cells were seeded in 96-well plates at 7.5×10^3 cells per well in a volume of 50 μL, and incubated at 37° C./5% CO2. Drug solutions were made up freshly in Huh-7 media as 2× stocks. Ten additional 5-fold dilutions were prepared from these stocks in DMEM without G418. At least three hours after Zluc cells were seeded, drug treatment was initiated by adding 50 μL of drug dilutions to the plates in duplicate. Final concentrations of drug ranged from 100 μM to […]. Cells were then incubated at 37° C./5% CO2. Alternatively, compounds were tested at two concentrations (1 μM and 10 μM). […] For this, media was removed from the plates via gentle tapping. Fifty microliters of ONE-glo luciferase assay reagent was added to each well. The plates were shaken gently for 3 min at room temperature and luminescence was measured on a Victor^3 V 1420 multilabel counter (Perkin Elmer) with a 1 second read time using a 700 nm cut-off filter. The EC50 values were calculated from dose response curves from the resulting best-fit equations determined by Microsoft Excel and XLfit 4.1 software. When screening at two fixed concentrations, the results were expressed as % inhibition at 1 μM and 10 μM.

The subject of another series is Huh-7 cells. As to the kind of experiment: Release of active metabolite in Huh-7 cells. It counts as in vitro ADME, human. The note with it: Table 6, AUC0-72. As to the method: Assay for the Release of Active Metabolite in Huh-7 Cells. Huh-7 cells were plated in 1 mL culture medium (DMEM, containing glucose, L-glutamine and sodium pyruvate, 10% FBS, 100 IU/mL penicillin, 100 μg/mL streptomycin, 2 mM GlutaMAX, 1% MEM non-essential amino acids) at the concentration 0.8, 0.4 and 0.2 million cells per well on 6 well plates for 24, 48 and 72 hr treatment, respectively. Plated cells were incubated overnight at 37° C. in an incubator.
The following morning test compound was diluted to 20 μM from a stock solution in DMSO in fresh culture medium pre-warmed to 37° C. and 1 mL of the solution/well was added to cells. A final medium volume per well was 2.0 mL, test compound concentration in well was 10 μM and final DMSO concentration was 0.1%.
After 24, 48 or 72 hr, the medium was carefully removed and cell monolayers were washed twice with 2 mL ice-cold PBS per well. Following the last wash, all PBS was carefully removed and 1.0 mL of extraction solution (ice-cold 70% methanol) added. The plate was tightly covered with Parafilm, plastic plate cover and Parafilm again and an intracellular content was extracted at −20° C. for 24 hr.
After 24 hr extracts were transferred into polypropylene microfuge tubes and dry on a refrigerated centrivap concentrator. Dry residues were reconstituted in 250 μL of HPLC-grade water and centrifuged at 16,000×g for 10 min. Aliquots (100 μL each) of the supernatants were transferred into a 96 well plate and internal standard (4 ng/mL final concentration) was added as the internal standard (IS) for LC-MS/MS analysis.

The target in another series is T1, cathepsin A (CatA) (Homo sapiens, UniProt P10619).
T1 sequence (P10619 29-326 limits assumed): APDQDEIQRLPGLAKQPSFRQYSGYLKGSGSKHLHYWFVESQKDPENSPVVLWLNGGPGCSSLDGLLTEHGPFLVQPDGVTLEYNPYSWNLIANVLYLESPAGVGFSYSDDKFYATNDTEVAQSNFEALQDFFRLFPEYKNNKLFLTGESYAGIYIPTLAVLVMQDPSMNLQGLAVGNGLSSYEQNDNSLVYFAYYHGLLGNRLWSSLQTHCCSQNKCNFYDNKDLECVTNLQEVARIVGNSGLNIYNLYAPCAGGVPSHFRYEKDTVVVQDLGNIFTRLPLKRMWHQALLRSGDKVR
T1 sequence (P10619 327-480 limits assumed): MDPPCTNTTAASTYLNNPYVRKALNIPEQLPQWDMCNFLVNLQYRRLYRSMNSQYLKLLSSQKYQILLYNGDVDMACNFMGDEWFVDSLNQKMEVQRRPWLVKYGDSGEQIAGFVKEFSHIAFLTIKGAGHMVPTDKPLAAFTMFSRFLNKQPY
Nature of the series: CatA hydrolysis assay. The following applies: for CatA hydrolysis @ 18 h: 100 μM compound, 37° C. It counts as in vitro ADME.

A further series is described as follows: Liver TP (Table 6). It is filed as in vivo. The following applies: liver triphosphate, species and dose not stated.
Series [1] concerns the target T2, carboxylesterase 1 (CES1) (Homo sapiens, UniProt P23141).
T2 sequence (P23141 18-567): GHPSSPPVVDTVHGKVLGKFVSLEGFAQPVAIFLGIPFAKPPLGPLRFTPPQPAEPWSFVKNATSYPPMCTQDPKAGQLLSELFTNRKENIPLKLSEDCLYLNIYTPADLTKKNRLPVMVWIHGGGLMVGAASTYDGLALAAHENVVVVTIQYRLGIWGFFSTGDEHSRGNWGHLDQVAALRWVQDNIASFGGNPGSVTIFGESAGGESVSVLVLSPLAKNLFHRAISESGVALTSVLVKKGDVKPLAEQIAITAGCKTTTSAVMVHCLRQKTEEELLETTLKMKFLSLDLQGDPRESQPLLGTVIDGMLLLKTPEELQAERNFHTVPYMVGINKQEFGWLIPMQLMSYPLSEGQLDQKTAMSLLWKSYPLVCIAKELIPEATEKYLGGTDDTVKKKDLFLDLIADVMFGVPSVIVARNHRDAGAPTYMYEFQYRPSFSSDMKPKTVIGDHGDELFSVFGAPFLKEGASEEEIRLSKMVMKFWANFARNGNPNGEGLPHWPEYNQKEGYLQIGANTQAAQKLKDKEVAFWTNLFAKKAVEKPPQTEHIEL
Protocol: (§1) CES1 assay was performed at 37° C. in the reaction mixture containing 50 mM Tris/HCl buffer pH 7.5 and 100 μM of the compound. Reaction was started by addition of the CES1 to the final concentration 0.01 μg/mL. 100 μL aliquots were taken after 0.5 min, 3 hrs and 21 hrs of the incubation and the reaction was stopped by mixing with 100 μl of the ice-cold methanol prior to HPLC analysis.
(§2) Samples were analyzed by HPLC using 5 μC-18, 4.6×250 mm Phenomenex® Columbus column (Phenomenex USA, CA). The mobile phase consisted of buffer A (25 mM potassium phosphate with 5 mM tetrabutylammonium dihydrogen phosphate pH 6.3) and buffer B (100% methanol).

The target of series [2] is T2, carboxylesterase 1 (CES1). As to the kind of experiment: CES1 hydrolysis assay. The following applies: 100 μM compound, 37° C.
Protocol: as §1, §2

Broadly, the EC50 is the concentration giving half of the maximal effect.

The structures appear in SMILES notation. Like-named read-outs stand apart in the source and are kept apart here.

Protocol for cathepsin A (CatA): CatA, cathepsin L (CatL) and CES1 were purchased from R & D Systems (Minneapolis, Minn.). Prior to the enzymatic hydrolysis reactions, CatA was activated according to the manufacturer's instruction. Briefly, CatA (0.05 μg/μL) was incubated with CatL (0.005 μg/μL) for 30 min at 37° C. in 25 mM MES pH 6.0 containing 5 mM DTT. The reaction was stopped by addition of the CatL specific inhibitor E64 (10 μM).
The CatA assay was performed at 37° C. The reaction mixture contained 25 mM MES buffer pH 6.0, 100 mM NaCl, 4 mM DTT and 100 μM of the compound. The reaction was started by addition of the activated CatA enzyme to a final concentration of 0.005 μg/μL. One hundred-μL aliquots were taken after 0.5 min, 3 hrs and 18 hrs of incubation. Reactions were stopped by mixing the sample with an equal volume of ice-cold methanol, and were loaded on a HPLC for analysis.
as §2

In the case of `CC(C)OC(=O)[C@H](C)N[P@@](=O)(OC[C@H]1O[C@@H](n2ccc(=O)[nH]c2=O)[C@](C)(F)[C@@H]1O)Oc1ccccc1` [PSI-7976], the EC50 in the series with HCV genotype 1b replicon (Table 6) turned out to be 2080 nM. Further, the “Huh-7 pmol*hr/10^6 cells AUC0-72” value with Huh-7 cells stood at 6527 pmol*hr/10^6 cells. The “CatA hydrolysis @ 18 h” value at cathepsin A (CatA) is recorded as 10% @. In addition, in “Liver TP (Table 6)”, the “Liver TP” value came to 310 pmol·h/g. Moreover, the “Hydrolysis by CES1 (in words)” value in series [1] is listed as “preferentially hydrolyzed”.

In the case of `CC(C)OC(=O)[C@H](C)N[P@](=O)(OC[C@H]1O[C@@H](n2ccc(=O)[nH]c2=O)[C@](C)(F)[C@@H]1O)Oc1ccccc1` (single isomer, unassigned) [GS-7977], the EC50 in the series with HCV genotype 1b replicon (Hepatitis C virus, Huh-7, Table 6) came out at 250 nM. The “Huh-7 pmol*hr/10^6 cells AUC0-72” value with Huh-7 cells is 63555 pmol*hr/10^6 cells. Also, the “CatA hydrolysis @ 18 h” value at cathepsin A (CatA) was determined as 100% @. In addition, the “CatA cleavage efficiency versus RP diastereoisomer” value on cathepsin A (CatA) (GS-7977 (SP) relative to PSI-7976 (RP)) turned out to be 10 times. The “CES1 hydrolysis 3 h” value in series [2] (3 h) was 12%/3 h;. Further, the “CES1 hydrolysis 21 h” value in series [2] (21 h) was 15%/21 h.
